In paper PMC5245739, “Nanoscale Electric Characteristics and Oriented Assembly of Halobacterium salinarum Membrane Revealed by Electric Force Microscopy” (Nanomaterials, 2016):
No end group written: not given here.

What was measured:
purple membrane (PM) [1] = molecular target: T1, purple membrane (PM) (Halobacterium salinarum, UniProt P02945); assay: SPR binding of peptide to PM (KxV5-type SPR, Langmuir adsorption model); details: PM patches as mobile phase
T1 construct: The culture of Halobacterium halobium and PM isolation were carried out following a standard procedure; endogenous in cells; host or cells: Halobacterium halobium culture; purple membrane isolated by the standard procedure (Oesterhelt & Stoeckenius)
T1 sequence (P02945 14-261 limits assumed): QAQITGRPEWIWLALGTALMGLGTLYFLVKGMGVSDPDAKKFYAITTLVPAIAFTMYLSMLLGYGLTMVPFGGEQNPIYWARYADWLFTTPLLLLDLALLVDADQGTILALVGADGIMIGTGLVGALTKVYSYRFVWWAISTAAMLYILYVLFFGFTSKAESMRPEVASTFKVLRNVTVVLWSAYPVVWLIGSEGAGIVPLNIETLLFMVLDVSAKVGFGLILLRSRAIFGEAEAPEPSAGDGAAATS
Experimental: Binding affinity of peptide with PM was tested by using surface plasmon resonance (SPR), which can provide real-time monitoring of biomolecular interactions [46, 47]. The binding constant between PM and the peptide was calculated based on Langmuir adsorption, in which the following equation is applicable. (4) 1/R=1/(RmaxKACA)+1/Rmax Rmax is the maximum coverage, KA is the equilibrium adsorption constant, and CA is the concentration of adsorbate solution [48].
The culture of Halobacterium halobium and PM isolation were carried out following a standard procedure [49]. Purified PM was suspended in double-distilled water and stored at 4 °C. The buffer used in the experiments consisted of 10 mM Tris HCl with a pH value of 8.0.
The characterization of the peptides-PM binding interaction was accomplished with the surface plasmon resonance technique (KxV5-type SPR, Plexera, Woodinville, WA, USA). […] The peptides were introduced to the surface of the gold chip in advance as stationary phase. SPR chip was modified by thiol molecules containing carboxyl to form self-assembled layer. 5 mL of carboxyl thiols (dithiosole-COOH, 1 μM) and hydroxy-dithiol molecule (dithiosole-OH, 10 μM) mixing ethanol solution was dropped on a SPR chip surface, and then the remaining liquid was removed by suction after 15 min of adsorption. After rinsing with ethanol, the carboxyl-terminated SAM on the chip surface underwent EDC/NHS activation. PM patches were introduced as a mobile phase. Based on the Langmuir adsorption model, the kinetic parameters and the binding constant were calculated using Plexera software.

purple membrane (PM) [2] = molecular target: T1, purple membrane (PM); assay: Directional PM assembly on Peptide-3 modified silicon, AFM and surface potential; details: side attributed from surface potential; PM adsorbed on peptide modified silicon (EDC/NHS)
Experimental: The peptide was modified on silicon substrates via 1-ethyl-3-(3-(dimethylamino)propyl) carbodiimide (EDC)/N-hydroxysuccinimide(NHS) coupling for an oriented PM assembly. The silicon surface is treated with oxygen plasma first for hydroxyl group generation and then followed by (3-aminopropyl)triethoxysilane (APTES) modification for an amino-terminated surface. Then, introduction of succine anhydride leads to a carboxyl-terminated self-assembled monolayer (SAM) on the silicon surface, followed by EDC/NHS activation to immobilized peptides onto the silicon surface. […] This observation is consistent with the SPR measurements on the binding affinity of peptide with PM. The surface potential analyses of PM patches on silicon substrate are labeled by lines in EFM-potential images and their sectional analyses were done. […]
The topographic and surface potential images were obtained using a Bruker Dimension Icon microscope in a two-pass operation mode slightly different from the EFM measurement mentioned above. […] The deflection amplitude of the probe in lift mode was monitored, which was linearly proportional to the electrical force imposed on the probe. […]

GARGIMIGTGLVGALTDVYSYDF showed a kon (purple membrane (PM) [1]; peptide immobilised on gold chip (carboxyl-terminated SAM, EDC/NHS), Plexera software, buffer used in the experiments 10 mM Tris HCl pH 8.0, read-out: adsorption rate constant ka) of 283 M⁻¹ s⁻¹, a koff (purple membrane (PM) [1]; peptide immobilised on gold chip (carboxyl-terminated SAM, EDC/NHS), Plexera software, buffer used in the experiments 10 mM Tris HCl pH 8.0, read-out: dissociation rate constant kd) of 0.00238 s⁻¹ and a Kd (purple membrane (PM) [1]; peptide immobilised on gold chip, buffer used in the experiments 10 mM Tris HCl pH 8.0, unit inferred, read-out: equilibrium dissociation constant KD) of 8.43 µM. The “orientation of PM on peptide-modified silicon” value (purple membrane (PM) [2]) was “identical orientation of the PM on surface”.
